{
  "source": "PubChem BioAssay AID192",
  "about": "(DTP/NCI, 2004)",
  "tested_on": "BDF1 mice, B16 melanoma ip, median survival T/C",
  "assay": "NCI In Vivo Anticancer Drug Screen. Data for tumor model B16 Melanoma (intraperitoneal) in B6D2F1 (BDF1) mice",
  "settings": "endpoint: median survival time, higher = longer survival",
  "summary_of_the_method": "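Survival or tumor size is measured after treatment of tumor-bearing mice and normalised to the vehicle-treated control group.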",
  "key": {"[1]": {"settings": "dose: 12.5 mg/kg/injection, schedule: Q01DX009 (ip), vehicle: saline"}, "[2]": {"settings": "dose: 25.0 mg/kg/injection, schedule: Q01DX009 (ip), vehicle: saline"}, "[3]": {"settings": "dose: 25.0 mg/kg/injection, schedule: Q01DX009 (ip), vehicle: saline with Tween-80"}, "[4]": {"settings": "dose: 50.0 mg/kg/injection, schedule: Q01DX009 (ip), vehicle: saline with Tween-80"}, "[5]": {"settings": "dose: 100.0 mg/kg/injection, schedule: Q01DX009 (ip), vehicle: saline with Tween-80"}, "[6]": {"settings": "dose: 200.0 mg/kg/injection, schedule: Q01DX009 (ip), vehicle: saline with Tween-80"}, "[7]": {"settings": "dose: 12.5 mg/kg/injection, schedule: Q01DX009 (ip), vehicle: Klucel (hydroxypropylcellulose) (HPC)"}, "[8]": {"settings": "dose: 25.0 mg/kg/injection, schedule: Q01DX009 (ip), vehicle: Klucel (hydroxypropylcellulose) (HPC)"}},
  "note": "Where “and” joins values, the source holds several entries; their conditions need not be identical. Identical values can stand only once. Inconclusive results and toxic doses are left out. Numbered stars: 1 amine (or outer) side, 2 acyl side, 3 side chain; on linkers, the order of the positions; unused ones are H or OH. Bridge positions count the residues as written; N and C are the ends. Square brackets hold non-standard residues; d marks the D form. Peptide text beside a SMILES is read from it. I, II: the chains in the order shown. Actinocin(9to1) = Cc1c2oc3c(C)ccc(C(=O)[*:1])c3nc-2c(C(=O)[*:2])c(N)c1=O; NMeV = CN[CH](C(=O)O)C(C)C; Aze = O=C(O)[CH]1CCN1; Sar = CNCC(=O)O",
  "data": [
    {"smiles": "N=c1ccn2c(n1)OC1C(O)C(CO)OC12", "note": "(centres undefined)", "values": [
      {"measurement": "T/C", "setting": "[1]", "result": "98 % of control"},
      {"measurement": "T/C", "setting": "[2]", "result": "96 % of control and 109 % of control"},
      {"measurement": "T/C", "setting": "dose: 50.0 mg/kg/injection, schedule: Q01DX009 (ip), vehicle: saline", "result": "102 % of control and 108 % of control and 117 % of control"},
      {"measurement": "T/C", "setting": "dose: 100.0 mg/kg/injection, schedule: Q01DX009 (ip), vehicle: saline sonified", "result": "104 % of control"},
      {"measurement": "T/C", "setting": "dose: 100.0 mg/kg/injection, schedule: Q01DX009 (ip), vehicle: saline", "result": "120 % of control and 105 % of control"},
      {"measurement": "T/C", "setting": "dose: 200.0 mg/kg/injection, schedule: Q01DX009 (ip), vehicle: saline sonified", "result": "104 % of control"},
      {"measurement": "T/C", "setting": "dose: 200.0 mg/kg/injection, schedule: Q01DX009 (ip), vehicle: saline", "result": "114 % of control and 124 % of control"},
      {"measurement": "T/C", "setting": "dose: 400.0 mg/kg/injection, schedule: Q01DX009 (ip), vehicle: saline sonified", "result": "110 % of control"}
    ]},
    {"smiles": "CCc1cccc2ccccc12", "values": [
      {"measurement": "T/C", "setting": "dose: 75.0 mg/kg/injection, schedule: Q01DX009 (ip), vehicle: Klucel (hydroxypropylcellulose) (HPC)", "result": "118 % of control"},
      {"measurement": "T/C", "setting": "dose: 150.0 mg/kg/injection, schedule: Q01DX009 (ip), vehicle: Klucel (hydroxypropylcellulose) (HPC)", "result": "121 % of control"},
      {"measurement": "T/C", "setting": "dose: 300.0 mg/kg/injection, schedule: Q01DX009 (ip), vehicle: Klucel (hydroxypropylcellulose) (HPC)", "result": "106 % of control"}
    ]},
    {"smiles": "COc1cc(C)c2c(=O)c3c(oc2c1)C(=O)c1c(O)c(OC)cc(O)c1C3=O", "values": [
      {"measurement": "T/C", "setting": "[3]", "result": "105 % of control"},
      {"measurement": "T/C", "setting": "[4]", "result": "101 % of control"},
      {"measurement": "T/C", "setting": "[5]", "result": "96 % of control"},
      {"measurement": "T/C", "setting": "[6]", "result": "100 % of control"}
    ]},
    {"smiles": "O=C1N(c2nncs2)CCN1[N+](=O)[O-]", "values": [
      {"measurement": "T/C", "setting": "[7]", "result": "91 % of control"},
      {"measurement": "T/C", "setting": "[8]", "result": "102 % of control"},
      {"measurement": "T/C", "setting": "dose: 50.0 mg/kg/injection, schedule: Q01DX009 (ip), vehicle: Klucel (hydroxypropylcellulose) (HPC)", "result": "100 % of control"},
      {"measurement": "T/C", "setting": "dose: 200.0 mg/kg/injection, schedule: Q01DX009 (ip), vehicle: Klucel (hydroxypropylcellulose) (HPC)", "result": "87 % of control"}
    ]},
    {"smiles": "CCN(C(=O)Nc1ccccc1Cl)c1ccccc1", "values": [
      {"measurement": "T/C", "setting": "dose: 100.0 mg/kg/injection, schedule: Q04DX003 (ip), vehicle: saline with Tween-80", "result": "94 % of control"},
      {"measurement": "T/C", "setting": "dose: 200.0 mg/kg/injection, schedule: Q04DX003 (ip), vehicle: saline with Tween-80", "result": "100 % of control"},
      {"measurement": "T/C", "setting": "dose: 400.0 mg/kg/injection, schedule: Q04DX003 (ip), vehicle: saline with Tween-80", "result": "91 % of control"}
    ]},
    {"smiles": "CC(=O)[S][Pb]([c]1ccccc1)([c]1ccccc1)[c]1ccccc1", "values": [
      {"measurement": "T/C", "setting": "dose: 0.5 mg/kg/injection, schedule: Q01DX009 (ip), vehicle: saline with Tween-80", "result": "97 % of control"},
      {"measurement": "T/C", "setting": "dose: 1.0 mg/kg/injection, schedule: Q01DX009 (ip), vehicle: saline with Tween-80", "result": "93 % of control"},
      {"measurement": "T/C", "setting": "dose: 2.0 mg/kg/injection, schedule: Q01DX009 (ip), vehicle: saline with Tween-80", "result": "92 % of control"},
      {"measurement": "T/C", "setting": "dose: 4.0 mg/kg/injection, schedule: Q01DX009 (ip), vehicle: saline with Tween-80", "result": "101 % of control"}
    ]},
    {"smiles": "S=c1[nH]c2ccccc2[nH]1", "values": [
      {"measurement": "T/C", "setting": "dose: 1.56 mg/kg/injection, schedule: Q01DX009 (ip), vehicle: Klucel (hydroxypropylcellulose) (HPC)", "result": "91 % of control"},
      {"measurement": "T/C", "setting": "dose: 3.12 mg/kg/injection, schedule: Q01DX009 (ip), vehicle: Klucel (hydroxypropylcellulose) (HPC)", "result": "90 % of control"},
      {"measurement": "T/C", "setting": "dose: 6.25 mg/kg/injection, schedule: Q01DX009 (ip), vehicle: Klucel (hydroxypropylcellulose) (HPC)", "result": "95 % of control"},
      {"measurement": "T/C", "setting": "[7]", "result": "86 % of control"},
      {"measurement": "T/C", "setting": "[8]", "result": "100 % of control"}
    ]},
    {"smiles": "COc1ccc2nonc2c1", "values": [
      {"measurement": "T/C", "setting": "[3]", "result": "107 % of control"},
      {"measurement": "T/C", "setting": "[4]", "result": "95 % of control"},
      {"measurement": "T/C", "setting": "[5]", "result": "91 % of control"},
      {"measurement": "T/C", "setting": "[6]", "result": "101 % of control"}
    ]},
    {"smiles": "CC1NCCNCCNCCNC(C)c2cccc1n2", "note": "(centres undefined)", "values": [
      {"measurement": "T/C", "setting": "dose: 6.25 mg/kg/injection, schedule: Q01DX009 (ip), vehicle: saline", "result": "107 % of control"},
      {"measurement": "T/C", "setting": "[1]", "result": "98 % of control"},
      {"measurement": "T/C", "setting": "[2]", "result": "102 % of control"}
    ]},
    {"smiles": "CC(=O)C1(O)Cc2c(O)c3c(c(O)c2C(OC2CC(N)C(O)C(C)O2)C1)C(=O)c1ccccc1C3=O", "note": "(centres undefined)", "values": [
      {"measurement": "T/C", "setting": "dose: 0.16 mg/kg/injection, schedule: Q01DX001 (ip), vehicle: water", "result": "117 % of control"},
      {"measurement": "T/C", "setting": "dose: 0.31 mg/kg/injection, schedule: Q01DX001 (ip), vehicle: water", "result": "121 % of control"},
      {"measurement": "T/C", "setting": "dose: 0.63 mg/kg/injection, schedule: Q01DX001 (ip), vehicle: water", "result": "123 % of control"},
      {"measurement": "T/C", "setting": "dose: 1200.0 micrograms/kg/injection, schedule: Q04DX003 (ip), vehicle: water", "result": "94 % of control"}
    ]},
    {"smiles": "C[CH2][Pb]([CH2]C)([CH2]C)[n]1cnc2ccccc21", "values": [
      {"measurement": "T/C", "setting": "dose: 0.75 mg/kg/injection, schedule: Q01DX009 (ip), vehicle: Klucel (hydroxypropylcellulose) (HPC)", "result": "95 % of control"},
      {"measurement": "T/C", "setting": "dose: 1.5 mg/kg/injection, schedule: Q01DX009 (ip), vehicle: Klucel (hydroxypropylcellulose) (HPC)", "result": "96 % of control"}
    ]},
    {"smiles": "Cc1c2oc3c(C)ccc(C(=O)NC4C(=O)NC(C(C)C)C(=O)N5CCC5C(=O)N(C)CC(=O)N(C)C(C(C)C)C(=O)OC4C)c3nc-2c(C(=O)NC2C(=O)NC(C(C)C)C(=O)N3CCC3C(=O)N(C)CC(=O)N(C)C(C(C)C)C(=O)OC2C)c(N)c1=O", "note": "(centres undefined) (I: TV[Aze][Sar][NMeV] / II: TV[Aze][Sar][NMeV]; ester I:1-I:C, II:1-II:C; linker I:N-II:N via Actinocin(9to1); configuration not given here)", "values": [
      {"measurement": "T/C", "setting": "dose: 0.3 mg/kg/injection, schedule: Q04DX003 (ip), vehicle: saline + alcohol", "result": "169 % of control"},
      {"measurement": "T/C", "setting": "dose: 0.45 mg/kg/injection, schedule: Q04DX003 (ip), vehicle: saline + alcohol", "result": "163 % of control"},
      {"measurement": "T/C", "setting": "dose: 100.0 micrograms/kg/injection, schedule: Q01DX009 (ip), vehicle: saline + alcohol", "result": "159 % of control"},
      {"measurement": "T/C", "setting": "dose: 150.0 micrograms/kg/injection, schedule: Q01DX009 (ip), vehicle: saline + alcohol", "result": "161 % of control"}
    ]},
    {"smiles": "Cc1cc2nc(Cc3ccccc3)[nH]c2cc1C", "values": [
      {"measurement": "T/C", "setting": "dose: 12.5 mg/kg/injection, schedule: Q01DX009 (ip), vehicle: saline with Tween-80", "result": "102 % of control"},
      {"measurement": "T/C", "setting": "[3]", "result": "105 % of control"},
      {"measurement": "T/C", "setting": "[4]", "result": "94 % of control"}
    ]},
    {"smiles": "COc1ccc(C2=CC(=O)N(C(C)C)C2=O)cc1", "values": [
      {"measurement": "T/C", "setting": "dose: 20.0 mg/kg/injection, schedule: Q04DX003 (ip), vehicle: saline with Tween-80", "result": "109 % of control"},
      {"measurement": "T/C", "setting": "dose: 40.0 mg/kg/injection, schedule: Q04DX003 (ip), vehicle: saline with Tween-80", "result": "113 % of control"},
      {"measurement": "T/C", "setting": "dose: 80.0 mg/kg/injection, schedule: Q04DX003 (ip), vehicle: saline with Tween-80", "result": "111 % of control"}
    ]}
  ]
}
